Laboratory results from patent publication US20230263822A1, “MODULATION OF FACTOR 11 EXPRESSION” (Ionis Pharmaceuticals, Inc., priority 2008, published 2023).

Columns and labels:
human Factor 11 mRNA [1] = assay: Antisense inhibition of human Factor 11 in HepG2 cells, electroporation, 8,000 nM (Example 30); assay type: cell-based; settings: electroporation, 8,000 nM antisense oligonucleotide
How it was run: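 HepG2 cells electroporated with 8,000 nM 5-10-5, 5-8-5 or 6-8-6 MOE gapmers (phosphorothioate, 5-methylcytidine), ~24 h. Factor 11 mRNA quantified by qRT-PCR, normalised to RIBOGREEN total RNA. Reported as percent inhibition versus untreated cells.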

[2] = Tolerability in Sprague-Dawley rats: kidney function, urine protein/creatinine (Example 35); settings: Sprague Dawley rats
Procedure: A control group of four Sprague Dawley rats was injected subcutaneously with PBS twice per week for 6 weeks. Body weight measurements were taken before and throughout the treatment period. Urine samples were taken before the start of treatment. Three days after the last dose, urine samples were taken and the rats were sacrificed. Organ weights were measured and blood was collected for further analysis.
To evaluate the effect of kidney function, plasma concentrations of blood urea nitrogen (BUN) and creatinine were measured using an automated clinical chemistry analyzer (Hitachi Olympus AU400e, Melville, N.Y.).

human Factor 11 mRNA [3] = assay: Antisense inhibition of human Factor 11 in HepG2 cells by microwalk gapmers, lipofectin, 75 nM (Example 3); assay type: cell-based
How it was run: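 HepG2 cells (10,000/well) were transfected via lipofectin with 75 nM 20-mer MOE gapmers (phosphorothioate, 5-methyl-C) for about 24 h. Factor 11 mRNA was measured by qRT-PCR, normalized to RIBOGREEN total RNA, and given as percent inhibition versus untreated cells.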

human Factor 11 mRNA [4] = assay: Dose-dependent inhibition of human Factor 11 in HepG2 cells, lipofectin 9.375-75 nM (Example 4); assay type: cell-based; settings: for percent inhibition of Factor 11 at 9.375 nM / percent inhibition of Factor 11 at 18.75 nM / percent inhibition of Factor 11 at 37.5 nM / percent inhibition of Factor 11 at 75 nM: relative to untreated control cells
How it was run: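 HepG2 cells transfected via lipofectin with antisense oligonucleotide at 9.375, 18.75, 37.5 or 75 nM for about 16 h. Factor 11 mRNA quantified by real-time RT-PCR (primer probe set RTS 2966) and normalized to total RNA (RIBOGREEN). Results expressed as percent inhibition versus untreated cells.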

human Factor 11 mRNA [5] = assay: Dose-dependent inhibition of human Factor 11 in HepG2 cells, electroporation 0.7-20 uM (Example 4); assay type: cell-based; settings: for percent inhibition of Factor 11 at 0.7 μM / percent inhibition of Factor 11 at 2.2 μM / percent inhibition of Factor 11 at 6.7 μM / percent inhibition of Factor 11 at 20 μM: relative to untreated control cells
How it was run: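 HepG2 cells electroporated with antisense gapmers at 0.7, 2.2, 6.7 and 20 μM, treated ~16 h. Factor 11 mRNA quantified by qRT-PCR (primer probe set RTS 2966), normalised to RIBOGREEN total RNA; expressed as percent inhibition versus untreated control cells.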

[6] = After treatment, 50 mg/kg s.c. twice per week for 6 weeks
[7] = Before antisense oligonucleotide treatment
[8] = HepG2 cells, lipofectin, gapmers targeted to nucleobases 1275 to 1318 of SEQ ID NO: 1

Substance | Percent inhibition of human Factor 11 mRNA levels (human Factor 11 mRNA [1]) | Urine protein/creatinine ratio [2, 6] | Urine protein/creatinine ratio [2, 7] | % inhibition (human Factor 11 mRNA [3]; HepG2, lipofectin, ~24 h, gapmers targeted to nucleobases 656 to 704 of SEQ ID NO: 1) | IC50 (human Factor 11 mRNA [4]) | percent inhibition of Factor 11 at 9.375 nM (human Factor 11 mRNA [4]) | percent inhibition of Factor 11 at 18.75 nM (human Factor 11 mRNA [4]) | percent inhibition of Factor 11 at 37.5 nM (human Factor 11 mRNA [4]) | percent inhibition of Factor 11 at 75 nM (human Factor 11 mRNA [4]) | IC50 (human Factor 11 mRNA [5]) | percent inhibition of Factor 11 at 0.7 μM (human Factor 11 mRNA [5]) | percent inhibition of Factor 11 at 2.2 μM (human Factor 11 mRNA [5]) | percent inhibition of Factor 11 at 6.7 μM (human Factor 11 mRNA [5]) | percent inhibition of Factor 11 at 20 μM (human Factor 11 mRNA [5]) | % inhibition (human Factor 11 mRNA [3]; [8])
416825 (antisense GCCCTTCATGTCTAGGTCCA; 5-10-5 gapmer, further chemistry not given here) [compound 416825] | 90% | 5.4 | 1.1 | 92% | 20 nM | 23% | 52% | 73% | 92% | 1300 nM | 27% | 74% | 92% | 98% | 
416850 (antisense TGCACAGTTTCTGGCAGGCC; 5-10-5 gapmer, further chemistry not given here) [compound 416850] | 91% | 4.0 | 1.0 |  | 29 nM | 4% | 30% | 67% | 84% | 3400 nM | 14% | 25% | 81% | 91% | 93%
416858 (antisense ACGGCATTGGTGCACAGTTT; 5-10-5 gapmer, further chemistry not given here) [compound 416858] | 90% | 4.4 | 0.9 |  | 33 nM | 0% | 28% | 54% | 82% | 5300 nM | 5% | 20% | 56% | 86% | 93%
416864 (antisense GGCAGCGGACGGCATTGGTG; 5-10-5 gapmer, further chemistry not given here) [compound 416864] | 88% | 4.0 | 1.2 |  | 26 nM | 18% | 43% | 62% | 78% | 1400 nM | 32% | 65% | 78% | 90% | 93%
417003 (antisense TGGTGCACAGTTTCTGGCAG; 2-13-5 gapmer chemistry, further chemistry not given here) [compound 417003] |  | 4.8 | 0.9 |  | 33 nM | 26% | 44% | 60% | 56% | 3900 nM | 0% | 34% | 75% | 89% | 89%
